From article PMC5561046, “Cytochrome P450/ABC transporter inhibition simultaneously enhances ivermectin pharmacokinetics in the mammal host and pharmacodynamics in Anopheles gambiae” (Scientific Reports, 2017)
pIC50: −log10 of the molar value. Values joined by “and” are separate entries in the source; they are usually repeats but may differ in a detail not shown here. Identical values can stand only once. “Also recorded” adds a separate entry of the source.

Legend:
[1] = Drug-drug interaction study: ivermectin plasma pharmacokinetics in mini-pigs; conditions: for AUC inf, Median (Range) / Cmax, Median (Range) / AUC > LD50, Median (Range) / Time > LD50, Median (Range): group median (range); for AUC inf, Median (Range) / Cmax, Median (Range): plasma ivermectin, single oral 800 mcg/kg; for AUC inf, Median (Range) / Cmax, Median (Range) / AUC > LD50, Median (Range) / Time > LD50, Median (Range) / Time > LD50: treatment group as in the label; for AUC > LD50, Median (Range): area under the plasma ivermectin curve above 6 ng/ml; for AUC > LD50, Median (Range) / Time > LD50, Median (Range) / Time > LD50: oral 800 mcg/kg; for Time > LD50, Median (Range): time plasma ivermectin is above 6 ng/ml; for Time > LD50: individual mini-pig, time plasma ivermectin is above 6 ng/ml (10-day LC50 for Anopheles gambiae)
Procedure: (§1) The experiments were conducted following a randomised crossover design (Fig. 1). In phase I all mini-pigs received a single 800 mcg/kg dose of oral ivermectin and sampling was done as described below. […] The total wash-out period between ivermectin doses was 30 days. […] Inhibiting the P-gp could theoretically lead to toxicity due to abnormal accumulation of the drug in the brain[30], [31]. […] Irrespectively of this, drug quantification in cerebrospinal fluid (CSF) was added as an additional safety point. Rifampicin a CYP/P-gp inducer[49] was included as we expected to see reduced bioavailability and penetration into CSF.
The pre-medication drugs were administered by crushing the tablets and mixing them with canned meat products used for enrichment. For ivermectin administration and sampling during the first 8 hours, the animals were sedated with a single intramuscular dose of tiletamine-zolazepan (4 mg/kg) and maintained with inhalatory isoflurane (1.5–2%). In pigs, there is no evidence of a significant interaction (other than being a substrate) of these drug classes with the CYP3A4 or the P-gp[80]. Ivermectin was administered via nasogastric tube.
For blood sampling during the first eight hours, a femoral line was left in place and later removed during recovery from anaesthesia. Blood sampling thereafter was done by jugular puncture under restrain. […] For the mosquito bioassay, additional serum samples were obtained at every time point, and frozen at −20 °C.
Blood samples were drawn in 3 ml EDTA tubes and centrifuged. Plasma was separated and frozen at −20 °C until analysis. CSF samples were frozen at −20 °C.
(§2) Ivermectin levels in plasma and CSF were determined using a validated adaptation of a previously described HPLC-FLD[82]. The detection limit in plasma and CSF was 0.1 ng/ml, the quantification limit was 0.5 ng/ml.
Pharmacokinetic analyses were performed using Phoenix WinNonlin 6.4 (Certara, Princeton, NJ, USA). Pharmacokinetic parameters were derived from non-compartmental analyses.
The comparison of PK parameters between ivermectin groups was done by means of a two-sided Mann-Whitney test.

[2] = minipig, in vivo
Procedure: as §1
For obtaining CSF samples during the first 8 hours, an intrathecal catheter was placed by means of fluoroscopy-guided lateral lumbar puncture[81] (Fig. 5). Given the challenges posed by the particular anatomy of the pig, efforts were done to tunnel the intrathecal catheter and connect it to a subcutaneous reservoir in order to avoid repeating the technically demanding lumbar puncture during phase II of the study (Fig. 5). […] Sampling points for CSF were: pre-treatment and at 0.5, 1, 2, 3, 4, 5, 6, 7 and 8 hours. […]
as §2

[3] = Clinical observation of mini-pigs for adverse events / ivermectin toxicity signs; type: in vivo, mini-pig; conditions: oral ivermectin 800 mcg/kg with or without ketoconazole or rifampicin pre-treatment
Procedure: Six hybrid mini-pigs (2 male, 4 female) weighing between 46 and 70 kg were procured from our accredited breeding centre at the University of Navarra. They were housed individually throughout the study at the animal research facilities in the University of Navarra. From arrival onward, the animals were assessed daily for general wellbeing and after the intervention, also for specific ivermectin toxicity signs.

Anopheles gambiae [4] = assay: Synergistic mosquito bioassay: membrane feeding with mini-pig serum samples, mortality follow-up; type: in vivo, Anopheles gambiae s.s.; conditions: for Mean survival / Time to median mortality: Anopheles gambiae, membrane feeding
Procedure: Mosquitoes were membrane fed with reconstituted blood as described by Bousema et al.[51].
Since mosquitoes grouped in cups for feeding, we used a cluster design in which the unit of intervention was mosquito cups. Our primary outcome was mean 10-day mosquito mortality after membrane feeding. Sample size calculations were conducted according to the method described by Gangnon and Kosorok[52]. The minimum expected 10-day mortality in mosquitoes imbibing blood containing 9.9 ng/ml of ivermectin is 66%; this is based on the predictive function described by Ouedraogo et al.[50]. Based on previous observations and with all mosquitoes having the same colony origin and age range, we chose a conservative intracluster correlation of 0.15. The frailty variance of clusters was resembled by a gamma of 1. All experiments were performed in triplicate. With these parameters, at least 4 clusters of 44 mosquitoes were needed per arm to achieve 80% power at 5% significance level accounting for 10% non-feeders.
Baseline serum samples collected before ivermectin treatment in ketoconazole and naïve pigs were used as controls. These samples were shipped frozen to the insectary facilities of the Ifakara Health Institute in Bagamoyo, Tanzania for membrane feeding assays. It was hypothesised that induction of the mosquito CYP/P-gp by rifampicin could improve survival in presence of ivermectin, but this could not be tested due to a reduced absorption of ivermectin in the mini-pigs pre-treated with rifampicin (see below).
For all experiments, we used the fully susceptible Anopheles gambiae s.s. colony maintained at the insectary in Bagamoyo. Mosquitoes were reared at 28 °C, 80% humidity and with a photoperiod of 12:12. Larvae were kept in large plastic bowls covered with netting containing approximately 2 litres of water with larval densities not exceeding one 4th instar larvae per ml. Larvae were fed Tetramine fish flakes ad libitum. Once they developed into pupae these were collected using disposable plastic Pasteur pipettes and transferred to small bowls containing approximately 200 ml of clean water. The pupae bowls were then placed inside fully screened cages (30 × 30 × 30 cm) where adult mosquitoes were allowed to emerge and given 10% glucose as a sugar source ad libitum.
Only mosquitoes of 2–5 days of age were used for the experiments. Before the experiments, mosquitoes were starved from sugar for 12–18 hours and from water for one hour. Hungry females were selected by applying a bottle with heated water (37–40 °C) to the cage. 40–50 hungry females were transferred to each paper cup using a mouth aspirator.
We performed membrane feeding assays with serum replacement as previously described. For each experiment, the selected pig sample was thawed and 1 ml of whole blood was centrifuged at 2100 rpm for 10 minutes. The serum volume was noted and replaced with the same amount of the sample pig-serum being tested. After this, tubes were inverted 10 times. Each sample was tested in triplicate.
In order to reduce potential confounding arising from variations in bloodmeal size, partially fed mosquitoes were discarded and only fully engorged females followed up for the mortality assessment. After each feeding experiment, the cups were placed on ice for 1–2 minutes to select and transfer fully engorged females.
Cups with fully engorged mosquitoes were kept at 24–26 °C and 65–70% relative humidity inside climate controlled incubators. Mosquitoes were maintained with 10% glucose solution using impregnated cotton. Mortality was recorded daily for 9 days by a person blinded to the allocation of the cups. Dead mosquitoes were removed from the cups daily.
Survival Kaplan-Meier analysis was performed in Addinsoft’s XLSTAT ® Version 2016.04.32229 (New York, NY, USA). Comparisons of survival patterns were done with Log-rank test using a 5% significance level adjusted for cluster design.

Anopheles gambiae [5] = tested on: Anopheles gambiae; set-up: method as in PMID 25414262; conditions: cited from earlier work
[6] = cited from earlier work
CYP 3A4 = tested on: CYP 3A4; set-up: method as in PMID 19255936; conditions: estimated; cited from earlier work
[7] = Pair 1: ivermectin 9.98 (IVM) vs 8.96 (KET) ng/ml in the fed sample
[8] = Pair 2: ivermectin 16.5 (IVM) vs 17.23 (KET) ng/ml in the fed sample
[9] = Pair 3: ivermectin 20.46 (IVM) vs 20.39 (KET) ng/ml in the fed sample
[10] = Pair 4: ivermectin 27.58 (IVM) vs […] (KET) ng/ml in the fed sample

CCC(C)C1OC2(CCC1C)CC1CC(CC=C(C)C(OC3CC(OC)C(OC4CC(OC)C(O)C(C)O4)C(C)O3)C(C)C=CC=C3COC4C(O)C(C)=CC(C(=O)O1)C34O)O2 (stereo not shown) [Ivermectin]
AUC inf, Median (Range) ([1]; listed as Ivermectin 1): 244 (1899) h·ng/mL | Cmax, Median (Range) ([1]; listed as Ivermectin 1): 8.7 (26.0) ng/mL | AUC inf, Median (Range) ([1]; listed as Ivermectin 2): 1205.3 (349) h·ng/mL | Cmax, Median (Range) ([1]; listed as Ivermectin 2): 18 (5.6) ng/mL | AUC inf, Median (Range) ([1]; listed as Ivermectin(combined)): 862.7 (1899) h·ng/mL | AUC > LD50, Median (Range) ([1]; listed as Ivermectin 1): 23.7 (509.4) h·g/mL | AUC > LD50, Median (Range) ([1]; listed as Ivermectin 2): 297.6 (142.6) h·g/mL | Time > LD50, Median (Range) ([1]; listed as Ivermectin 1): 4.6 (46.7) h | Time > LD50, Median (Range) ([1]; listed as Ivermectin 2): 49.9 (9.1) h | Time > LD50 ([1]; listed as Ivermectin 1): 9.3 h | Time > LD50 ([1]; listed as Ivermectin 2): 54.5 h and 45.4 h | Time > LD50 ([1]; listed as Ivermectin(combined)): 46.7 h and 27.2 h and 0.0 h | increase in ivermectin time above LC50 ([1]; ketoconazole pre-treatment vs ivermectin alone, mini-pigs): 3 fold | median Cmax ([1]; plasma ivermectin in mini-pigs, ivermectin alone (combined) vs ketoconazole pre-treatment, P = 0.033): 14 ng/mL | total AUC ([1]; plasma ivermectin in mini-pigs, ivermectin alone (combined) vs ketoconazole pre-treatment, P = 0.067, not significant): 862 ng·h/mL | ivermectin concentration in CSF [2]: < 0.5 ng/mL | number of CSF samples in which ivermectin was detectable [2]: 4 | clinical adverse events [3]: No clinical adverse events were observed | Mean survival (Anopheles gambiae [4]; [7]): 6.73 (6.29–7.17) days | Time to median mortality (Anopheles gambiae [4]; [7]): 7 days | Mean survival (Anopheles gambiae [4]; [8]): 5.11 (4.63–5.86) days | Time to median mortality (Anopheles gambiae [4]; [8]): 5 days | Mean survival (Anopheles gambiae [4]; [9]): 7.43 (7.11–7.75) days | Time to median mortality (Anopheles gambiae [4]; [9]): 7 days | Mean survival (Anopheles gambiae [4]; [10]): 5.28 (4.54–6.02) days | Time to median mortality (Anopheles gambiae [4]; [10]): 5 days | 10-day lethal concentration 50 (LC50) (Anopheles gambiae [5]; kills 50% of Anopheles gambiae in 10 days): 6 ng/ml | minimum expected 10-day mortality (Anopheles gambiae [5]; mosquitoes imbibing blood containing 9.9 ng/ml of ivermectin, from predictive function): 66% | time for which concentrations that kill 50% of Anopheles gambiae in 10 days are sustained ([6]; after the single dose of 200 mcg/kg commonly used for NTDs, no reference given): around 72 hours | half-life [6]: 18 h

CC(=O)N1CCN(c2ccc(OCC3COC(Cn4ccnc4)(c4ccc(Cl)cc4Cl)O3)cc2)CC1 (stereo not shown) [ketoconazole]
effect on mortality of Anopheles gambiae fed samples containing ivermectin (Anopheles gambiae [4]; ketoconazole at CYP inhibition concentrations, matched ivermectin concentrations (+/−1 ng/ml), all four pairs): significantly increased the mortality | effect on 10-day mortality of Anopheles gambiae (Anopheles gambiae [4]; ketoconazole-only baseline pig sample vs fully drug-free sample, Log-rank P = 0.048, n = 222): did not increase the mortality | pIC50 (CYP 3A4): […]

CO[C@H]1/C=C/O[C@@]2(C)Oc3c(C)c(O)c4c(O)c(c(/C=N/N5CCN(C)CC5)c(O)c4c3C2=O)NC(=O)/C(C)=C\C=C\[C@H](C)[C@H](O)[C@@H](C)[C@@H](O)[C@@H](C)[C@H](OC(C)=O)[C@@H]1C [rifampicin, Rifampicin]
effect of pre-treatment on ivermectin absorption ([1]; rifampicin pre-treatment (CYP/P-gp induction), mini-pigs, oral ivermectin 800 mcg/kg): markedly impaired ivermectin absorption; also recorded: seriously hampered ivermectin absorption
